Data taken from PubChem BioAssay (NCI).
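Growth conditions: 96-well plates. Treatment: test compound, 48 hours, 5 concentrations. Analysis: linear interpolation between bracketing concentrations; unreached endpoints set to highest concentration. At the TGI there is no net growth.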 Where a SMILES comes first, the peptide text is derived from it.

Key:
Assay in all cases: DTP human tumour cell line panel, 48 h
CAKI-1 renal = system: CAKI-1 renal
T-47D breast = system: T-47D breast
HOP-92 NSCLC = system: HOP-92 NSCLC
HCT-116 colon = system: HCT-116 colon
ACHN renal = system: ACHN renal
NCI-H226 lung = system: NCI-H226 lung
HOP-62 NSCLC = system: HOP-62 NSCLC
HL-60(TB) leukemia = system: HL-60(TB) leukemia
MDA-MB-231 breast = system: MDA-MB-231 breast
786-0 renal = system: 786-0 renal
SK-OV-3 ovarian = system: SK-OV-3 ovarian
IGROV1 ovarian = system: IGROV1 ovarian
NCI-H23 lung = system: NCI-H23 lung
SF-268 CNS = system: SF-268 CNS
KM12 colon = system: KM12 colon
SN12C renal = system: SN12C renal
MDA-MB-435 = system: MDA-MB-435

Row | SMILES | TGI (CAKI-1 renal) [µM] | TGI (T-47D breast) [µM] | TGI (HOP-92 NSCLC) [µM] | TGI (HCT-116 colon) [µM] | TGI (ACHN renal) [µM] | TGI (NCI-H226 lung) [µM] | TGI (HOP-62 NSCLC) [µM] | TGI (HL-60(TB) leukemia) [µM] | TGI (MDA-MB-231 breast) [µM] | TGI (786-0 renal) [µM] | TGI (SK-OV-3 ovarian) [µM] | TGI (IGROV1 ovarian) [µM] | TGI (NCI-H23 lung) [µM] | TGI (SF-268 CNS) [µM] | TGI (KM12 colon) [µM] | TGI (SN12C renal) [µM] | TGI (MDA-MB-435) [µM]
1 | COc1cc(S(=O)(=O)Nc2nc(-c3ccc(N)cc3)cs2)ccc1Cl | > 100 | > 100 | > 100 | > 100 | > 100 | > 100 | > 100 | > 100 | > 100 | > 100 | > 100 | > 100 | > 100 | > 100 | > 100 | > 100 | > 100
2 | NNc1ccccc1Cl | > 100 | > 100 | > 100 | > 100 | > 100 | > 100 | > 100 | > 100 | > 100 | > 100 | > 100 | > 100 | > 100 | > 100 | > 100 | > 100 | > 100
3 | CC1(c2nc3ccccc3[nH]2)CCC(C(N)=O)C(C)(C)O1 (configuration not stated) | > 100 | > 100 | > 100 | > 100 | > 100 | > 100 | > 100 | > 100 | > 100 | > 100 | > 100 | > 100 | > 100 | > 100 | > 100 | > 100 | > 100
4 | Cc1c2cccc-2ccc2c1[nH]c1ccc(Br)cc12 | 24.9 | 4.01 | 9.94 | 17.2 | 24.4 | 5.6 | 20.1 | > 100 | 18.8 | 27.5 | 28.7 | 15 | 22.4 | 17.2 | 7.08 | 27.2 | 16.7
5 | COc1ccc([C@H]2C=C(c3cc(F)c(Cl)cc3Cl)NC(=S)N2)cc1 | > 100 | > 100 | > 100 | 84.9 | > 100 | > 100 | > 100 | 35.7 | > 100 | > 100 | > 100 | > 100 | > 100 | > 100 | > 100 | 57.1 | 56.4
6 | CCN(CC)CCn1c2cc3c(cc2c(=O)c2cccnc21)OCO3 | > 10 | > 10 | > 10 | > 10 | > 10 | > 10 | > 10 | > 10 | > 10 | > 10 | > 10 | > 10 | > 10 | > 10 | > 10 | > 10 | > 10
7 | CC(=O)c1nc2ccccc2n1CC(=O)c1ccc(Cl)cc1 | > 100 | > 100 | 22.5 | > 100 | – | > 100 | 25.2 | > 100 | > 100 | 14.1 | > 100 | 26.1 | > 100 | > 100 | > 100 | > 100 | > 100
8 | CC(=O)NC(CS)C(=O)NC(CO)C(=O)NC(CO)C(=O)NC(Cc1c[nH]c2ccccc12)C(=O)N1CCCC1C(=O)NC(CO)C(=O)NC(Cc1c[nH]c2ccccc12)C(=O)NC(Cc1c[nH]cn1)C(=O)NC(CO)C(=O)NC(Cc1c[nH]c2ccccc12)C(=O)NCC(=O)NCC(=O)NC(CC(=O)O)C(=O)NC(CCC(N)=O)C(=O)NC(CCCCN)C(=O)NC(Cc1ccccc1)C(=O)NC(CCCNC(=N)N)C(=O)NC(CCCCN)C(N)=O (configuration not stated) (Ac-CSSWPSWHSWGGDQKFRK-NH2; configuration not given here) | > 25 | > 25 | > 25 | > 25 | > 25 | > 25 | > 25 | > 25 | > 25 | > 25 | > 25 | > 25 | > 25 | > 25 | > 25 | > 25 | > 25
9 | c1ccc(N=c2sc3ccccc3sc2=Nc2ccccc2)cc1 | 4.59 | 3.56 | 9.93 | 3.18 | 3.03 | 9.3 | 15.3 | > 100 | 3.67 | 3.14 | 11.8 | 3.08 | 3.82 | 10.2 | 4.25 | 3.15 | 3.99
10 | Cc1cc(S(=O)(=O)NC2=NC(c3ccccc3)c3ccccc3N2)c(S)cc1Cl (configuration not stated) | > 100 | > 100 | > 100 | > 100 | > 100 | > 100 | > 100 | > 100 | > 100 | > 100 | > 100 | > 100 | > 100 | > 100 | > 100 | > 100 | > 100
11 | CC(C)(C)CC(C)(C)N=C(N)NO | > 100 | > 100 | > 100 | > 100 | 23.4 | > 100 | > 100 | > 100 | > 100 | > 100 | 99.1 | > 100 | > 100 | > 100 | > 100 | > 100 | > 100
12 | S=C(N/N=C(/c1ccccc1)c1ccccn1)Nc1ccc(Cl)cc1 | 9.37 | 2.89 | 11.9 | 4.47 | 9.01 | 7.54 | 16.6 | 0.543 | 8.27 | 12.3 | 6.81 | 12.9 | 22.6 | 15.5 | 13.7 | 13.4 | 10.2
13 | NC1CC(=O)c2csc(Cl)c21 (configuration not stated) | 3.68 | > 23.6 | 25.4 | 14.1 | 10.3 | 94.6 | 29.1 | 13.1 | 22.5 | 2.96 | 31.1 | 42.2 | 54 | 31.8 | 17.4 | 14.2 | 27.3
14 | COC(=O)[C@]12CCC(C)(C)C[C@H]1C1=CC[C@@H]3[C@@]4(C)CC[C@H](OC5OC(CO)C(O)C(O)C5OC5OC(CO)C(O)C(O)C5O)C(C)(C)[C@@H]4CC[C@@]3(C)[C@]1(C)CC2 (some centres not stated) | 21 | 36.3 | 13 | 18.7 | 20.5 | 14.5 | 25.3 | 19.4 | 7.2 | 23.8 | 36.1 | 28.7 | 19.6 | 31.2 | 26.9 | 15.9 | 20.8
15 | O=C1/C(=C/c2ccccc2)N=C(c2ccccc2)N1C1Nc2cc3c(cc2S1)NC(N1C(=O)/C(=C/c2ccccc2)N=C1c1ccccc1)S3 (configuration not stated) | > 100 | > 100 | 8.27 | > 100 | > 100 | > 100 | > 100 | > 100 | > 100 | > 100 | > 100 | > 100 | 39.3 | > 100 | 55.6 | – | 47.1
16 | O=C(NCCNCCNCCNC(=O)c1cc(-c2ccccc2)nc2ccccc12)c1cc(-c2ccccc2)nc2ccccc12 | 29.4 | 7.66 | 7.81 | 3.39 | 4.91 | 7.38 | 5.96 | 3.85 | 7.57 | 3.08 | 11.1 | 7.52 | 13.1 | 10.1 | 5.54 | 11.2 | 3.23
17 | NC1=CN(Cc2ccccc2)C2=N/C(=C\c3ccccc3)C(=O)N12 | > 100 | > 100 | > 100 | > 100 | > 100 | > 100 | > 100 | > 100 | > 100 | > 100 | > 100 | > 100 | > 100 | > 100 | > 100 | > 100 | > 100
18 | O=C1c2cscc2C(=O)C1(O)O | 83.7 | 37.5 | > 100 | 46.3 | > 100 | > 100 | > 100 | 72.5 | > 100 | > 100 | > 100 | > 100 | 45.9 | > 100 | > 100 | 36.3 | 99.7
19 | CO[C@@H]1C=C[C@@]23c4cc5c(cc4C(O)N(CC2O)C3C1)OCO5 (some centres not stated) | 27.2 | 8.01 | 13.6 | 21.3 | 18.6 | > 100 | > 100 | 5.64 | 21.8 | 22.6 | > 100 | 68.9 | 56.1 | > 100 | 17 | > 100 | 18.2
20 | COc1ccc(N2C(=O)c3cccnc3S2(=O)=O)cc1 | > 100 | > 100 | > 100 | > 100 | > 100 | > 100 | > 100 | > 100 | > 100 | > 100 | > 100 | > 100 | > 100 | > 100 | > 100 | > 100 | > 100
21 | OCc1ccc2c(c1)CC1(C2)Cc2cc3c(cc2C1)CCC3 | > 100 | > 100 | > 74 | > 100 | > 82.4 | > 100 | > 46.5 | > 100 | > 100 | > 100 | > 100 | > 100 | > 100 | > 100 | > 100 | > 50.8 | 0.615
22 | CCN1C(=O)c2ccccc2C1(O)c1ccc(Cl)cc1 (configuration not stated) | > 100 | > 100 | > 100 | > 100 | > 100 | 74.3 | > 100 | > 100 | > 100 | > 100 | > 100 | > 100 | > 100 | > 100 | > 100 | > 100 | > 100
23 | COc1cc2c(cc1OC)C1CCc3ccccc3CN1CC2 (configuration not stated) | > 100 | > 100 | > 100 | > 100 | > 100 | > 100 | > 100 | > 100 | > 100 | > 100 | > 100 | > 100 | > 100 | > 100 | > 100 | > 100 | > 100
24 | NCCCCN(CCCN)Cc1ccccc1 | > 100 | > 100 | > 100 | > 100 | > 100 | > 100 | > 100 | > 100 | > 100 | > 100 | > 100 | > 100 | > 100 | > 100 | > 100 | > 100 | > 100
25 | CC(C)C1SCc2nc3ccccc3n21 (configuration not stated) | > 100 | > 100 | > 100 | > 100 | > 100 | 0.96 | > 100 | > 100 | 78.2 | > 100 | > 100 | > 100 | > 100 | > 100 | 45.5 | > 100 | 89.9
26 | COCOCC1CCCN1CN1CCC[C@H]1COCOC (some centres not stated) | > 100 | > 100 | > 100 | > 100 | > 100 | > 100 | > 100 | 61.3 | > 100 | > 100 | > 100 | > 100 | > 100 | > 100 | > 100 | > 100 | > 100
27 | CN(C)c1nc(=NCc2cccs2)ss1 | > 10 | > 10 | > 10 | > 10 | > 10 | > 10 | > 10 | 2.16 | > 10 | > 10 | > 10 | > 10 | > 10 | > 10 | > 10 | > 10 | > 10
